From patent publication US9920075B2, “Triazolopyridine and triazolopyrimidine inhibitors of myeloperoxidase” (BRISTOL-MYERS SQUIBB COMPANY, priority 2014, dated 2018)
Where two headings read alike, the source gives them in different places.

Experiments:
Format in all cases: biochemical
myeloperoxidase (MPO) [1] = molecular target: T1, myeloperoxidase (MPO) (Homo sapiens, UniProt P05164); assay: MPO chlorination assay (APF assay)
T1 sequence (P05164 49-745): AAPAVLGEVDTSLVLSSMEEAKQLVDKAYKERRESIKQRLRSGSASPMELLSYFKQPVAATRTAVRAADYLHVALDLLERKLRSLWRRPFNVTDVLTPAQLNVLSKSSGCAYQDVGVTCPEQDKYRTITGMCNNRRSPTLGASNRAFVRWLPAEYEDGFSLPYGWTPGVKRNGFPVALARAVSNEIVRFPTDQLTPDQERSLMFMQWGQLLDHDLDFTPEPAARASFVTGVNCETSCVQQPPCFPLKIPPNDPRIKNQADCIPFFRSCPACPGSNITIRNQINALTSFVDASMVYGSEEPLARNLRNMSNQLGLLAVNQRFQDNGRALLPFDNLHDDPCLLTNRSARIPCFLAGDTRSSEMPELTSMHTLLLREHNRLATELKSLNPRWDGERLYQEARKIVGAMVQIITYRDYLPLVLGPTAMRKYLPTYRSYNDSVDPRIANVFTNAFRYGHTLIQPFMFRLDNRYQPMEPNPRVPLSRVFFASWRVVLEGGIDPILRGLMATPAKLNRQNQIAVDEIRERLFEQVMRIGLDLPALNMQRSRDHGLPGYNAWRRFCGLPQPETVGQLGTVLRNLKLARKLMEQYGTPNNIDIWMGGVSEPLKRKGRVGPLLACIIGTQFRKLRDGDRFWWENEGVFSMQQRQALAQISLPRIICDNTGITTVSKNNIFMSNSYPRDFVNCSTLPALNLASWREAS
Method: [formula] where A=minimal Y value (activity level of inhibited sample), B=maximal Y value (activity level of uninhibited sample), C=Log IC50, D=Hill Slope, x=concentration of inhibitor. MPO Chlorination Assay (APF Assay)
MPO chlorination activity was measured in 100 mM KPi (pH 7.4) by utilizing the non-fluorescent reagent Aminophenyl fluorescein (APF, Invitrogen Cat. #A36003). APF is cleaved by (—OCl) to yield the fluorescent compound fluorescein. […] Enzyme, inhibitor, and chloride were preincubated for ten minutes at room temperature.
After the ten minute preincubation, 25 μL of an APF mixture containing […], 120 mM NaCl and 10 μM H2O2 was added to the plate using the internal dispensing system of a Hammatsu FDSS 6000. […] IC50 values for inhibitors were calculated by taking the slope of the linear portion of the kinetic measurement (20 seconds to ˜80-120 secs).
IC50 values were calculated by determining the slope of the linear portion of the kinetic trace (180-540 secs), and using that calculated slope to determine % inhibition occurring at each concentration of inhibitor using the following equation:
(§1) [formula] where A=minimal Y value (activity level of inhibited sample), B=maximal Y value (activity level of uninhibited sample), C=Log IC50, D=Hill Slope, x=concentration of inhibitor. EPX Bromination Assay

EPX = molecular target: T2, EPX (Homo sapiens, UniProt P11678); assay: EPX bromination assay
T2 construct: purchased Lee Biosolutions 342-60
T2 sequence (P11678 251-715 limits assumed): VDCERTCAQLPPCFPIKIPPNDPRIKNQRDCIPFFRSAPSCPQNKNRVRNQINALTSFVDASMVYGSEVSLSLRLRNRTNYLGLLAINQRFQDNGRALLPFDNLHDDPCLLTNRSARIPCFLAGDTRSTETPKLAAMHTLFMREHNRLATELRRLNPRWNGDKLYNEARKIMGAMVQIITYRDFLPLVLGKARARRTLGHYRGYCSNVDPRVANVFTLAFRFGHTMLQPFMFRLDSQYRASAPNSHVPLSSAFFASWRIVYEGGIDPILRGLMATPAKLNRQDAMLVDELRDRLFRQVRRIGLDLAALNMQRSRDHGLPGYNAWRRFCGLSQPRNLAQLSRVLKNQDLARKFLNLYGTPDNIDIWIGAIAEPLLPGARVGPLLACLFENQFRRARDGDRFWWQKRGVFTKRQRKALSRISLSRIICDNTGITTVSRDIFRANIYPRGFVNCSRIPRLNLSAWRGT
T2 sequence (P11678 140-250 limits assumed): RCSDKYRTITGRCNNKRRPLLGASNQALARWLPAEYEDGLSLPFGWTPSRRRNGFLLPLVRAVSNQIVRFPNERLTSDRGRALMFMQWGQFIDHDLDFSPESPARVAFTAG
Method: as §1
EPX bromination activity was measured in 100 mM KPi (pH 7.4) by monitoring the H2O2 catalyzed formation of 3-bromo tyrosine from tyrosine and potassium bromide. […] Enzyme and compound were preincubated for ten minutes at room temperature.
The reaction was allowed to proceed for 15 minutes, at which time it was quenched with 10 μL of 20% TCA. The final concentrations of all components were 0.3 μM EPX, 100 μM tyrosine, […], 5 μM H2O2, 0.1% DMSO, 2.0% TCA.
[formula] where A=minimal Y value (activity level of inhibited sample), B=maximal Y value (activity level of uninhibited sample), C=Log IC50, D=Hill Slope, x=concentration of inhibitor.
The column was maintained at 60° C. Samples were eluted using a gradient of 0%-100% B over 2.5 minutes, followed by equilibration with 100% A for 1 minute where A consisted of 0.1% TFA and B consisted of 90% MeOH/0.1% TFA at a flow rate of 0.6 mL/min.

myeloperoxidase (MPO) [2] = molecular target: T1, myeloperoxidase (MPO); assay: MPO peroxidation assay (Amplex Red assay); details: MPO peroxidation, 100 mM KPi pH 7.4, ten minute preincubation
Method in brief: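 Peroxidase activity read as kinetic resorufin fluorescence after adding an Amplex Red mix (200 μM Amplex Red, 10 mM H2O2) to MPO preincubated 10 min at room temperature with inhibitor in 100 mM KPi pH 7.4. Linear-phase slopes (180–540 s) gave % inhibition, fitted with a Hill-slope model for IC50.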

[3] = MPO chlorination, 100 mM KPi pH 7.4, ten minute preincubation, read-out: APF Assay IC50 value
[4] = EPX bromination, 100 mM KPi pH 7.4, ten minute preincubation, read-out: EPX IC50
[5] = read-out: Amplex Red Assay IC50 value

IC50 (myeloperoxidase (MPO) [1]; [3]) [µM]	IC50 (EPX; [4]) [µM]	IC50 (myeloperoxidase (MPO) [2]; [5]) [µM]	IC50 (myeloperoxidase (MPO) [1]) [µM]	IC50 (EPX) [µM]	IC50 (myeloperoxidase (MPO) [2]; Amplex Red Assay IC50 value) [µM]	Structure (SMILES)
0.17	0.04	0.02				COc1ccc(-n2nc(C)c(COc3cc(N)nc4[nH]nnc34)n2)cc1 [Example 11, 7-((2-(4-Methoxyphenyl)-5-methyl-2H-1,2,3-triazol-4-yl)methoxy)-3H-[1,2,3]triazolo[4,5-b]pyridin-5-amine]
0.06	0.04	0.02				Cn1ncc2c(COc3cc(N)nc4[nH]nnc34)cccc21 [Example 15, 7-((1-Methyl-1H-indazol-4-yl)methoxy)-3H-[1,2,3]triazolo[4,5-b]pyridin-5-amine]
			0.08	0.01	0.01	Nc1cc(OCc2nn(-c3ccccc3)nc2C(F)F)c2nn[nH]c2n1 [Example 55, 7-((5-(Difluoromethyl)-2-phenyl-2H-1,2,3-triazol-4-yl)methoxy)-3H-[1,2,3]triazolo[4,5-b]pyridin-5-amine]
